Data as given in ChEMBL document CHEMBL1201862, “PubChem BioAssay data set” (2004).
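These data come from cells grown in 96-well plates and exposed to compound for 48 hours at five concentrations. At the GI50, growth is halved.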 The source made the active and inactive calls. No stated cut-off is given here; in the data, active = GI50 up to about 1.1 µM and inactive = higher.

Legend:
Assay in all cases: NCI anticancer screen, dose series, 48 h
ACHN = tested on: ACHN
BT-549 = tested on: BT-549
HCT-116 = tested on: HCT-116
HL-60 = tested on: HL-60
HOP-92 = tested on: HOP-92
IGROV-1 = tested on: IGROV-1
K562 = tested on: K562
KM12 = tested on: KM12
LXFL 529 = tested on: LXFL 529
Malme-3M = tested on: Malme-3M
OVCAR-4 = tested on: OVCAR-4
OVCAR-5 = tested on: OVCAR-5
PC-3 = tested on: PC-3
SF-268 = tested on: SF-268
SK-OV-3 = tested on: SK-OV-3
SR = tested on: SR
SW-620 = tested on: SW-620
TK-10 = tested on: TK-10
COLO 205 = tested on: COLO 205
Hs-578T = tested on: Hs-578T

SMILES | GI50 (ACHN) | GI50 (BT-549) | GI50 (HCT-116) | GI50 (HL-60) | GI50 (HOP-92) | GI50 (IGROV-1) | GI50 (K562) | GI50 (KM12) | GI50 (LXFL 529) | GI50 (Malme-3M) | GI50 (OVCAR-4) | GI50 (OVCAR-5) | GI50 (PC-3) | GI50 (SF-268) | GI50 (SK-OV-3) | GI50 (SR) | GI50 (SW-620) | GI50 (TK-10) | GI50 (COLO 205) | GI50 (Hs-578T)
COc1cccc2c1C(=O)c1c(O)c3c(c(O)c1C2=O)C[C@@](O)(C(=O)CO)CC3OC1CC(O)C(O)C(C)O1 (some centres not stated) | 0.0527 µM (active) | 0.279 µM (active) | 0.0553 µM (active) | 0.0267 µM (active) | 0.138 µM (active) | 0.333 µM (active) | 0.239 µM (active) | 0.35 µM (active) | 0.461 µM (active) | 0.141 µM (active) | 1.01 µM (active) | 0.424 µM (active) | 0.274 µM (active) | 0.21 µM (active) | 0.235 µM (active) | < 0.01 µM (active) | 0.145 µM (active) | 0.792 µM (active) | – | –
COc1cccc2c1C(=O)c1c(O)c3c(c(O)c1C2=O)C[C@@](O)(/C(C)=N\O)C[C@@H]3OC1CC(N)C(O)C(C)O1 (some centres not stated) | 1.9 µM (inactive) | 1.72 µM (inactive) | 0.883 µM (active) | 0.218 µM (active) | 1.08 µM (active) | 0.76 µM (active) | 0.553 µM (active) | 2.39 µM (inactive) | 0.508 µM (active) | 0.755 µM (active) | 4.46 µM (inactive) | 2.7 µM (inactive) | 1.36 µM (inactive) | 0.931 µM (active) | 2.23 µM (inactive) | 0.0615 µM (active) | 0.504 µM (active) | 3.24 µM (inactive) | 0.955 µM (active) | 1.77 µM (inactive)
CCCCOC(=O)NC(=O)c1cn(CCCOC(=O)CCCCCCCCC(=O)OCCCn2cc(C(=O)NC(=O)OCCCC)c(=O)[nH]c2=O)c(=O)[nH]c1=O | > 100 µM (inactive) | – | > 100 µM (inactive) | > 100 µM (inactive) | > 100 µM (inactive) | > 100 µM (inactive) | > 100 µM (inactive) | > 100 µM (inactive) | > 100 µM (inactive) | > 100 µM (inactive) | > 100 µM (inactive) | > 100 µM (inactive) | – | > 100 µM (inactive) | > 100 µM (inactive) | > 100 µM (inactive) | > 100 µM (inactive) | > 100 µM (inactive) | > 100 µM (inactive) | –
Cc1cccc(C)c1NC(=O)C(=O)Nn1c(NN)nc2ccccc2c1=O | > 100 µM (inactive) | – | > 100 µM (inactive) | > 100 µM (inactive) | > 100 µM (inactive) | > 100 µM (inactive) | > 100 µM (inactive) | > 100 µM (inactive) | > 100 µM (inactive) | > 100 µM (inactive) | > 100 µM (inactive) | > 100 µM (inactive) | – | > 100 µM (inactive) | > 100 µM (inactive) | > 100 µM (inactive) | > 100 µM (inactive) | > 100 µM (inactive) | > 100 µM (inactive) | –
CC1(C)CC(Nc2ccc(Nc3ccccc3)cc2)CC(C)(C)N1 | 13.5 µM (inactive) | 12.7 µM (inactive) | 35.6 µM (inactive) | 6.97 µM (inactive) | 12 µM (inactive) | 44.1 µM (inactive) | 13.2 µM (inactive) | 44.1 µM (inactive) | 25.1 µM (inactive) | 17.9 µM (inactive) | 34.2 µM (inactive) | 36.2 µM (inactive) | 11.5 µM (inactive) | 43.3 µM (inactive) | > 100 µM (inactive) | 14.6 µM (inactive) | 21.8 µM (inactive) | 32.8 µM (inactive) | 16.8 µM (inactive) | 25.4 µM (inactive)
